Assay results taken from PMC6702328, “A VDAC1-Derived N-Terminal Peptide Inhibits Mutant SOD1-VDAC1 Interactions and Toxicity in the SOD1 Model of ALS” (Frontiers in Cellular Neuroscience, 2019).

Columns and labels:
NSC-34 cells = test: Cell death, PI staining and flow cytometry, NSC-34; format: cell-based, mouse; conditions: 5 h, serum-free medium, 37°C
Description: (§1) NSC-34 cells, a mouse motor neuron-like hybrid cell line, the A549 human lung adenocarcinoma and U-87MG human glioblastoma cell lines were incubated with the (1-26)N-Ter-Antp, D-(15-26)N-Ter-Antp, (1-20)N-Ter-Antp, (5-20)N-Ter-Antp, or (10-20)N-Ter-Antp peptides in the appropriate serum-free growth medium for 5 h at 37°C. Cells were harvested, and analyzed for cell death using propidium iodide (PI) staining and flow cytometry. For XTT, the CellTiter 96 AQueous one-solution cell proliferation assay was used to follow cell viability as described previously ([Leyton-Jaimes et al., 2016]).
(§2) NSC-34 (A), U-87MG (B), or A549 (C) cells were incubated with the indicated concentrations of (1-26)N-Ter-Antp (∙), D-(15-26) (19-26)N-Ter-Antp (▲), (1-20)N-Ter-Antp (∘), (5-20)N-Ter-Antp (□) or (10-20)N-Ter-Antp (◆) peptide for 5 h. Cell death was analyzed using PI staining and flow cytometry. […] Cell viability analysis was performed with the CellTiter 96 AQueous one-solution cell proliferation assay with ELISA at 490 nm. […] The significance of quantitative analysis of triplicates of different biological repeats (n = 3) was performed by Student’s t-test; ^∗∗P < 0.01. […] Twenty-four hours post-transfection, the cells were incubated for 5 h with (10-20)N-Ter-Antp peptide (20 μM) and then analyzed for apoptosis using acridine orange and ethidium bromide staining, as described previously ([McGahon et al., 1995]). Fluorescence microscopy images were analyzed and about 100 to 300 cells were counted for each treatment in representative microscopic fields. The significance of quantitative analysis of triplicates of different biological repeats (n = 3) was performed by one-way Anova; ^∗∗P < 0.01.

U-87MG cells = test: Cell death, PI staining and flow cytometry, U-87MG; format: cell-based, human; conditions: 5 h, serum-free medium, 37°C
Description: as §1, §2

A549 cells = test: Cell death, PI staining and flow cytometry, A549; format: cell-based, human; conditions: 5 h, serum-free medium, 37°C
Description: as §1, §2

[1] = system: NSC-34 cells transfected to express human mutant SOD1^G93A; test: Rescue of mutant SOD1^G93A toxicity, cell viability (XTT / CellTiter 96 AQueous); format: cell-based, mouse; conditions: NSC-34 cells expressing SOD1^G93A, increasing peptide concentrations, 5 h, XTT assay; n = 3
Description: as §1, §2
Cell viability was quantified using the XTT assay and apoptosis using acridine orange and ethidium bromide staining. […] Importantly, this effect was observed using the three non-cell death-inducing VDAC1-derived N-terminal peptides, i.e., the (1-20)-N-Ter-Antp, (5-20)-N-Ter-Antp and (10-20)-N-Ter-Antp peptides.

[2] = system: SOD1^G93A-expressing mESC-derived MNs; test: Neurite outgrowth of mESC-derived motor neurons; format: cell-based, mouse; conditions: 10 μM, first 24 h; mean ± SEM n = 3, P < 0.05
Description: (§3) This cell line carries green fluorescent protein (GFP) under the control of the promoter for the motor neuron (MN)-specific transcription factor HB9 (HB9:GFP cells) ([Di Giorgio et al., 2007]). We used the SOD1^G93A mESC line to derive GFP^+ MNs.
(§4) Motor neuron differentiation was induced as described previously with some modifications ([Wichterle et al., 2002]). Cells were cultured in ADFNB medium composed of advanced D-MEM/F12:Neurobasal (1:1), 0.1 mM 2-mercaptoethanol, and GlutaMAX supplement, B27 supplement, and N2 supplement all from Invitrogen, to form embryoid bodies (EBs), and supplemented with 0.1 μM of retinoic acid (RA, Sigma), as well as 0.5 μM of sonic hedgehog (Shh) agonist Ag1.3 (Curis) every second day.
For an in vitro differentiation assay, EBs were enzymatically dissociated after 7 days in culture with TrypLE Express (Gibco) and seeded on 0.01% poly-l-ornithine (Sigma) pre-coated coverslips followed by laminin (10 μg/ml, Sigma). […]
SOD1^G93A-expressing mESC-derived MNs were incubated with the indicated concentrations of (1-20)N-Ter-Antp peptide for 1–4 days following initiation of final differentiation. […] GFP fluorescence indicates the expression of the motor neuron-specific transcription factor HB9. […] (E) Quantification of MNs survival. For all assays, results are expressed as the mean ± SEM (n = 3). ^*P < 0.05.

[3] = system: SOD1^G93A-expressing mESC-derived MNs; test: Survival of mESC-derived motor neurons; format: cell-based, mouse
Description: as §3, §4
For an in vitro differentiation assay, EBs were enzymatically dissociated after 7 days in culture with TrypLE Express (Gibco) and seeded on 0.01% poly-l-ornithine (Sigma) pre-coated coverslips followed by laminin (10 μg/ml, Sigma). Cells (5 × 10^4) were seeded on coverslip in 24-well plates with ADFNB cell medium supplemented with of Ciliary neurotrophic factor (10 ng/ml, CNTF) and Glial cell-derived neurotrophic factor (GDNF; Miltenyi Biotec). During plating, 1-20N-Ter-Antp VDAC1-peptide was added to the cultures. Half of the medium was replaced with fresh medium every second day and at the indicated time points. The cultures were fixed in 4% paraformaldehyde in PBS.
Stereological estimation of neurite lengths to evaluate neurite outgrowth in cultured cells was carried out as described previously ([Ronn et al., 2000]). The total neuritic length per cell was estimated by counting the number of GFP^+ soma and neurite intersections with test lines of an unbiased counting frame superimposed on images of cell cultures obtained using a 20× objective (NA 0.75) of a Nikon Eclipse E800 epifluorescence microscope equipped with a Nikon DXM1200F CCD camera. The absolute length, L, of neurites per cell was subsequently estimated from the number of neurite intersections, I, per cell by means of the equation L = (πd/2)I describing the relationship between the number of neurite intersections and the vertical distance, d, between the test lines used.
SOD1^G93A-expressing mESC-derived MNs were incubated with the indicated concentrations of (1-20)N-Ter-Antp peptide for 1–4 days following initiation of final differentiation. […] Scale bar, 100 μm. […] GFP fluorescence indicates the expression of the motor neuron-specific transcription factor HB9. Gross cellular morphology of surviving MNs remained unaffected by the (1-20)N-Ter-Antp peptide. Scale bar, 25 μm. (E) Quantification of MNs survival. For all assays, results are expressed as the mean ± SEM (n = 3). ^*P < 0.05.

“1-MAVPPTYADLGKSARDVFTK-20-RQIKIWFQNRRMKWKK [(1-20)-N-Ter-Antp, like (1-26)-N-Ter-Antp but shortened by six amino acids at the C-terminus]” was tested, and the “Cell death induction in NSC-34 cells” value (NSC-34 cells) was “could not induce cell death”, the “Cell death induction in U-87MG cells” value (U-87MG cells) was “could not induce cell death” and the “Cell death induction in A549 cells” value (A549 cells) was “could not induce cell death”. For the same substance, the “Effect on SOD1^G93A toxicity (cell viability)” value [1] was “reduced the toxic effect of SOD1^G93A in a concentration-dependent manner”, the MN neurite outgrowth [2] was “significantly increased MN neurite outgrowth” and the “improvement of survival of SOD1^G93A-expressing MNs (fold)” value ([3]; 10 μM, 96 h) was “twofold”. For the same substance, the “number of surviving MNs over the course of final differentiation” value ([3]; 10 μM, 96 h, n = 3, P < 0.05) was “significantly increased the number of surviving MNs”, the “number of MNs present in the culture” value ([3]; 5 and 10 μM, 24 h after initiation of differentiation, n = 3, P < 0.05) was “significantly increased the number of MNs present in the culture” and the “optimal peptide concentration for neurite outgrowth and survival” value ([3]; SOD1^G93A-expressing mESC-derived MNs) was 10 µM.
